Laboratory results taken from ChEMBL document CHEMBL1201862, “PubChem BioAssay data set” (2004).
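How tested: cells in 96-well plates exposed to compound for 48 hours at five concentrations. GI50: concentration for 50% inhibition of growth.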 Calls of active or inactive are those of the source. Rule as the data show it: active = GI50 up to about 1.1 µM and inactive = higher.

Tests used:
Test in all cases: inhibition of tumour cell growth, NCI panel, 48 h
MDA-N = system: MDA-N
Malme-3M = system: Malme-3M
U-251 = system: U-251
PC-3 = system: PC-3
SK-MEL-5 = system: SK-MEL-5
HOP-62 = system: HOP-62
SF-539 = system: SF-539
SK-MEL-28 = system: SK-MEL-28
NCI-H226 = system: NCI-H226
DU-145 = system: DU-145
HT-29 = system: HT-29
MOLT-4 = system: MOLT-4
CCRF-CEM = system: CCRF-CEM
UACC-62 = system: UACC-62
OVCAR-5 = system: OVCAR-5
A498 = system: A498
MDA-MB-231 = system: MDA-MB-231
OVCAR-3 = system: OVCAR-3
786-0 = system: 786-0
LXFL 529 = system: LXFL 529

| SMILES | GI50 (MDA-N) | GI50 (Malme-3M) | GI50 (U-251) | GI50 (PC-3) | GI50 (SK-MEL-5) | GI50 (HOP-62) | GI50 (SF-539) | GI50 (SK-MEL-28) | GI50 (NCI-H226) | GI50 (DU-145) | GI50 (HT-29) | GI50 (MOLT-4) | GI50 (CCRF-CEM) | GI50 (UACC-62) | GI50 (OVCAR-5) | GI50 (A498) | GI50 (MDA-MB-231) | GI50 (OVCAR-3) | GI50 (786-0) | GI50 (LXFL 529) |
| --- | --- | --- | --- | --- | --- | --- | --- | --- | --- | --- | --- | --- | --- | --- | --- | --- | --- | --- | --- | --- |
| CC[C@H]1C=CCC[C@@]2(C[C@@H]3CC[C@@H]4[C@H](C(=O)OCCCCCCCCCCCCCCCC(=O)N(CCCN)CCCCN)[C@]5(CCC[C@@H](C)O5)NC(=[N+]34)N2)O1 | 0.0121 µM (active) | 0.04 µM (active) | 0.0561 µM (active) | 0.0428 µM (active) | < 0.01 µM (active) | 0.0415 µM (active) | 0.0679 µM (active) | 0.233 µM (active) | 0.314 µM (active) | 0.348 µM (active) | 0.0364 µM (active) | 0.0155 µM (active) | 0.0151 µM (active) | 0.0185 µM (active) | 0.108 µM (active) | 1.56 µM (inactive) | 0.275 µM (active) | 0.0738 µM (active) | 0.0229 µM (active) | – |
| N#Cc1sc2c(c1OC(=O)c1ccc(Cl)cc1)c(=O)n(-c1ccccc1)c(=S)n2-c1ccccc1 | 20.3 µM (inactive) | 20.4 µM (inactive) | 11.1 µM (inactive) | 21.7 µM (inactive) | 17.1 µM (inactive) | 27.7 µM (inactive) | 20.8 µM (inactive) | 16.9 µM (inactive) | 26.7 µM (inactive) | 25.8 µM (inactive) | 22.4 µM (inactive) | 42.3 µM (inactive) | 4.37 µM (inactive) | 18.2 µM (inactive) | 25.8 µM (inactive) | 21.5 µM (inactive) | 32.4 µM (inactive) | 17.1 µM (inactive) | 20.5 µM (inactive) | – |
| CC(C)(CN1CCCCC1)C(=O)/C=C/c1c(Cl)cccc1Cl | 0.792 µM (active) | 0.489 µM (active) | 1.38 µM (inactive) | 1.91 µM (inactive) | 1.42 µM (inactive) | 1.79 µM (inactive) | 2.08 µM (inactive) | 1.56 µM (inactive) | 2.65 µM (inactive) | 0.769 µM (active) | 1.38 µM (inactive) | 0.918 µM (active) | 0.52 µM (active) | 1.29 µM (inactive) | 1.48 µM (inactive) | 1.57 µM (inactive) | 0.789 µM (active) | 0.955 µM (active) | 1.31 µM (inactive) | – |
| CCOC(=O)c1oc2c(OC)ccc3c2c1CCC3 | – | > 100 µM (inactive) | > 100 µM (inactive) | – | > 100 µM (inactive) | > 100 µM (inactive) | > 100 µM (inactive) | > 100 µM (inactive) | – | – | 37.7 µM (inactive) | 37.1 µM (inactive) | 73.3 µM (inactive) | > 100 µM (inactive) | > 100 µM (inactive) | > 100 µM (inactive) | – | > 100 µM (inactive) | > 100 µM (inactive) | > 100 µM (inactive) |
| O=[N+]([O-])c1ccc2[nH]nc(OCc3ccccn3)c2c1 | > 100 µM (inactive) | > 100 µM (inactive) | 99.8 µM (inactive) | > 100 µM (inactive) | > 100 µM (inactive) | > 100 µM (inactive) | > 100 µM (inactive) | > 100 µM (inactive) | > 100 µM (inactive) | > 100 µM (inactive) | > 100 µM (inactive) | > 100 µM (inactive) | > 100 µM (inactive) | > 100 µM (inactive) | > 100 µM (inactive) | > 100 µM (inactive) | > 100 µM (inactive) | 61 µM (inactive) | > 100 µM (inactive) | – |
| CCOC(=O)C1S/C(=N\c2ccccc2)N=C1C (stereo not drawn) | – | > 100 µM (inactive) | > 100 µM (inactive) | – | – | > 100 µM (inactive) | 73.5 µM (inactive) | > 100 µM (inactive) | 74 µM (inactive) | – | 30.3 µM (inactive) | 38.2 µM (inactive) | – | – | 96.8 µM (inactive) | > 100 µM (inactive) | – | 97.1 µM (inactive) | 77.8 µM (inactive) | 65.8 µM (inactive) |
| NC(C(=O)O)c1ccc(C(=O)O)cc1 (stereo not drawn) | – | > 100 µM (inactive) | > 100 µM (inactive) | – | > 100 µM (inactive) | > 100 µM (inactive) | > 100 µM (inactive) | > 100 µM (inactive) | > 100 µM (inactive) | – | > 100 µM (inactive) | > 100 µM (inactive) | > 100 µM (inactive) | > 100 µM (inactive) | > 100 µM (inactive) | – | – | > 100 µM (inactive) | > 100 µM (inactive) | > 100 µM (inactive) |
| CN(C)CCCNc1c2ccccc2[n+]([O-])c2ccccc12 | 68.7 µM (inactive) | 76.7 µM (inactive) | 62.8 µM (inactive) | 46.5 µM (inactive) | 40.1 µM (inactive) | 43.5 µM (inactive) | 45.9 µM (inactive) | > 100 µM (inactive) | 22 µM (inactive) | > 100 µM (inactive) | 7.06 µM (inactive) | 42.4 µM (inactive) | 62.1 µM (inactive) | > 100 µM (inactive) | 38.8 µM (inactive) | 54.8 µM (inactive) | 63.4 µM (inactive) | 66.8 µM (inactive) | 40.6 µM (inactive) | – |
